According to the NIST ThermoML archive (doi:10.1021/je400529k):
± gives the expanded uncertainty stated by the source.

Columns and labels:
[1] = xn = mol fraction of the nth substance listed; settings: 101 kPa, Liquid; for mass density: Vibrating tube method; for viscosity: Capillary tube (Ostwald / Ubbelohde) method
[2] = refractive index (Na D-line) (dimensionless); xn = mol fraction of the nth substance listed; settings: 101 kPa, Liquid, Standard Abbe refractometry

C1C[C@@H]2[C@H]3CC[C@H](C3)[C@@H]2C1 [exo-tetrahydrodicyclopentadiene] + CC1CCCCC1
Settings | mass density, [1] [kg/m3] | refractive index, [2] | viscosity, [1] [mPa·s]
293.15 K, x1 = 0.1 | – | 1.4298 ± 0.001 | –
293.15 K, x1 = 0.2009 | – | 1.4376 ± 0.001 | –
293.15 K, x1 = 0.301 | – | 1.4447 ± 0.001 | –
293.15 K, x1 = 0.3999 | – | 1.4515 ± 0.001 | –
293.15 K, x1 = 0.4999 | – | 1.4586 ± 0.001 | –
293.15 K, x1 = 0.5992 | – | 1.4646 ± 0.001 | –
293.15 K, x1 = 0.7004 | – | 1.4709 ± 0.001 | –
293.15 K, x1 = 0.7995 | – | 1.4768 ± 0.001 | –
293.15 K, x1 = 0.9011 | – | 1.482 ± 0.001 | –
293.15 K, x1 = 1 | – | 1.4874 ± 0.001 | –
303.15 K, x1 = 0.1 | – | 1.4253 ± 0.001 | –
303.15 K, x1 = 0.2009 | – | 1.4324 ± 0.001 | –
303.15 K, x1 = 0.301 | – | 1.4402 ± 0.001 | –
303.15 K, x1 = 0.3999 | – | 1.4472 ± 0.001 | –
303.15 K, x1 = 0.4999 | – | 1.4539 ± 0.001 | –
303.15 K, x1 = 0.5992 | – | 1.4599 ± 0.001 | –
303.15 K, x1 = 0.7004 | – | 1.4662 ± 0.001 | –
303.15 K, x1 = 0.7995 | – | 1.4722 ± 0.001 | –
303.15 K, x1 = 0.9011 | – | 1.478 ± 0.001 | –
303.15 K, x1 = 1 | – | 1.4831 ± 0.001 | –
308.15 K, x1 = 0.5992 | 863.93 ± 0.14 | – | –
308.15 K, x1 = 0.7004 | 879.91 ± 0.15 | – | –
308.15 K, x1 = 0.7995 | 895.01 ± 0.15 | – | –
308.15 K, x1 = 0.9011 | 910 ± 0.15 | – | –
308.15 K, x1 = 1 | 924.02 ± 0.15 | – | –
313.15 K, x1 = 0.1 | 771.64 ± 0.16 | 1.4198 ± 0.001 | 0.652 ± 0.009
313.15 K, x1 = 0.2009 | 790.75 ± 0.15 | 1.4276 ± 0.001 | 0.733 ± 0.009
313.15 K, x1 = 0.301 | 809.05 ± 0.15 | 1.4351 ± 0.001 | 0.834 ± 0.009
313.15 K, x1 = 0.3999 | 826.43 ± 0.15 | 1.4421 ± 0.001 | 0.947 ± 0.01
313.15 K, x1 = 0.4999 | 843.53 ± 0.15 | 1.449 ± 0.001 | 1.074 ± 0.01
313.15 K, x1 = 0.5992 | 859.84 ± 0.15 | 1.4549 ± 0.001 | 1.218 ± 0.011
313.15 K, x1 = 0.7004 | 875.88 ± 0.15 | 1.4617 ± 0.001 | 1.388 ± 0.011
313.15 K, x1 = 0.7995 | 891.03 ± 0.15 | 1.4672 ± 0.001 | 1.579 ± 0.012
313.15 K, x1 = 0.9011 | 906.04 ± 0.15 | 1.4732 ± 0.001 | 1.81 ± 0.013
313.15 K, x1 = 1 | 920.11 ± 0.15 | 1.4786 ± 0.001 | 2.069 ± 0.015
318.15 K, x1 = 0.1 | 767.31 ± 0.16 | – | 0.616 ± 0.009
318.15 K, x1 = 0.2009 | 786.48 ± 0.15 | – | 0.691 ± 0.009
318.15 K, x1 = 0.301 | 804.83 ± 0.15 | – | 0.783 ± 0.009
318.15 K, x1 = 0.3999 | 822.26 ± 0.15 | – | 0.887 ± 0.01
318.15 K, x1 = 0.4999 | 839.4 ± 0.15 | – | 1.003 ± 0.01
318.15 K, x1 = 0.5992 | 855.75 ± 0.15 | – | 1.135 ± 0.01
318.15 K, x1 = 0.7004 | 871.84 ± 0.15 | – | 1.29 ± 0.011
318.15 K, x1 = 0.7995 | 887.03 ± 0.15 | – | 1.463 ± 0.012
318.15 K, x1 = 0.9011 | 902.08 ± 0.15 | – | 1.672 ± 0.013
318.15 K, x1 = 1 | 916.18 ± 0.15 | – | 1.907 ± 0.014
